# Data taken from patent publication US20140242093A1, “METHODS AND COMPOSITIONS FOR MODULATING THE INNATE IMMUNE RESPONSE AND/OR MYOGENESIS IN A MAMMALIAN SUBJECT” (FRED HUTCHINSON CANCER RESEARCH CENTER, priority 2011, published 2014).
# Test system: control human primary myoblasts
# Experiment: Expression microarray of primary myoblasts transduced with lentivirus carrying DUX4-fl, DUX4-s or GFP
# Description: Primary human myoblasts were collected and cultured as previously described (Snider et al., 2010). Primary myoblasts were maintained at or below 70% confluency for proliferation. For differentiation, cells were allowed to reach 95-100% confluency in growth medium. Once confluency was reached, the cells were changed to differentiation medium (F10 media supplemented with 1% horse serum, 10 μg/mL insulin, and 10 μg/mL transferrin, penicillin/streptomycin) and maintained for 4 days. Human RD cells were grown in DMEM in 10% bovine calf serum (Hyclone) and penicillin/streptomycin. The primary myoblasts were transduced with lentivirus carrying DUX-fl, DUX4- or GFP (MOI=15).
# Expression microarrays were performed on the transduced cells at 24 hours after transduction as follows. […] Samples were analyzed by Illumina Human Whole Genome microarrays. Probe intensities were corrected, normalized, and summarized by the Lumi package of Bioconductor (Du et al., 2008). Differentially expressed genes were identified by the LIMMA package of Bioconductor (Wettenhall and Smyth, 2004). Gene set enrichment analysis (GSEA) was performed using the Bioconductor GOstats package (Falcon and Gentleman, 2007).
substance,measurement,setting,value
"DUX4-fl: full-length DUX4 protein (SEQ ID NO:110), expressed from lentiviral or pCS2 vectors or in vitro translated",LOC284428 expression fc,Refseq XM_208203.5,8.023
same,LOC285697 expression fc,Refseq XM_210642.1,3.783
same,LOC342934 expression fc,Refseq XM_292724.5,2.988
same,LOC340096 expression fc,Refseq XM_293943.2,7.382
same,LOC389633 expression fc,Refseq XM_372030.4,1.807
same,LOC390031 expression fc,Refseq XM_372343.1,8.331
same,LOC390530 fc,Refseq XM_372543.2,−1.104
same,LOC391045 expression fc,Refseq XM_372780.3,2.166
same,LOC391092 expression fc,Refseq XM_372792.2,1.837
same,LOC391742 expression fc,Refseq XM_373056.1,5.733
same,LOC391747 expression fc,Refseq XM_373059.2,2.789
same,LOC391761 expression fc,Refseq XM_373073.2,3.009
same,LOC391764 expression fc,Refseq XM_373076.3,5.821
same,LOC391766 expression fc,Refseq XM_373077.2,5.724
same,LOC391767 expression fc,Refseq XM_373078.1,5.492
same,LOC399937 expression fc,Refseq XM_374917.3,1.841
same,LOC399939 expression fc,Refseq XM_374919.3,6.931
same,LOC401860 expression fc,Refseq XM_377445.3,4.272
same,LOC402199 expression fc,Refseq XM_377875.2,4.392
same,LOC646103 expression fc,Refseq XM_377879.3,4.658
same,LOC402207 expression fc,Refseq XM_377884.2,4.903
same,LOC440040 expression fc,Refseq XM_495873.4,7.534
same,FAM90A9 expression fc,Refseq XM_496956.4,2.248
same,FAM90A12 expression fc,Refseq XM_496961.3,1.774
same,LOC441584 expression fc,Refseq XM_497258.1,7.781
same,LOC441019 expression fc,"Refseq XM_498969.2, cultured human skeletal muscle",−2.107
same,PEG10 expression fc,Refseq XM_499343.2,1.935
same,LOC642362 expression fc,Refseq XM_925891.1,8.016
same,LOC642538 expression fc,Refseq XM_926027.2,1.792
same,LOC653111 expression fc,Refseq XM_926073.2,3.139
same,LOC642843 expression fc,Refseq XM_926241.2,2.728
same,LOC653192 expression fc,Refseq XM_926437.2,8.228
same,LOC653194 expression fc,Refseq XM_926449.1,3.633
same,LOC643731 expression fc,Refseq XM_927019.1,1.903
same,LOC653506 fc,Refseq XM_927769.1,−1.144
same,LOC645137 expression fc,Refseq XM_928167.2,2.323
same,fc of LOC653583 (expression array),Refseq XM_928224.2,−1.02
same,LOC645373 expression fc,Refseq XM_928412.1,2.891
same,LOC645558 expression fc,Refseq XM_928577.2,4.803
same,LOC645669 expression fc,Refseq XM_928680.1,8.202
same,LOC653656 expression fc,Refseq XM_928688.3,7.897
same,LOC653657 expression fc,Refseq XM_928697.2,7.857
same,LOC646698 expression fc,Refseq XM_929644.2,6.012
same,LOC646754 expression fc,Refseq XM_929704.2,5.11
same,LOC646914 expression fc,Refseq XM_929877.1,2.569
same,fc of LOC338758 (expression array),Refseq XM_931359.2,−1.005
same,LOC644739 fc,Refseq XM_933679.1,−1.165
same,LOC642127 expression fc,Refseq XM_936272.2,6.112
same,LOC642219 expression fc,Refseq XM_936370.2,4.799
same,LOC285299 expression fc,Refseq XM_936463.2,2.84
same,fc of BEXL1 (expression array),Refseq XM_936467.2,−1.018
same,LOC653978 expression fc,Refseq XM_937424.1,3.554
same,LOC646508 expression fc,Refseq XM_937570.1,2.498
same,LOC648533 expression fc,Refseq XM_937587.1,2.284
same,LOC342933 expression fc,Refseq XM_938208.2,3.752
same,PRAMEF17 expression fc,Refseq XM_938420.2,4.223
same,fc of LOC649425 (expression array),Refseq XM_938508.1,−0.2065
same,LOC649563 expression fc,Refseq XM_938635.2,2.425
same,LOC650167 expression fc,Refseq XM_939249.1,3.363
same,LOC654101 expression fc,Refseq XM_939354.1,5.034
same,MGC61598 expression fc,Refseq XM_939432.1,2.969
same,LOC651308 expression fc,Refseq XM_940443.1,8.169
same,ZC3H5 fc,Refseq XM_940903.2,−1.155
same,LOC651816 expression fc,Refseq XM_941060.1,1.836
same,LOC652080 expression fc,Refseq XM_941404.1,1.987
same,LOC652349 expression fc,Refseq XM_941777.1,2.835
same,LOC652433 expression fc,Refseq XM_941875.1,3.022
same,LOC651390 expression fc,Refseq XM_942401.1,1.937
same,LOC727846 expression fc,Refseq XM_001126140.1,2.175
same,LOC730278 fc,Refseq XM_001126471.1,−1.092
same,PARP10 expression fc,"Refseq XM_001127571.1, cultured human skeletal muscle",−2.064
same,fc of LOC730996 (expression array),Refseq XM_001128017.1,−0.2204
same,LOC342900 expression fc,Refseq XM_001129035.1,7.391
same,LOC729368 expression fc,Refseq XM_001130065.2,5.416
same,LOC729458 expression fc,Refseq XM_001130308.2,8.247
same,LOC729694 expression fc,Refseq XM_001131061.1,4.029
same,LOC729698 expression fc,Refseq XM_001131072.1,3.539
same,LOC729700 expression fc,Refseq XM_001131081.1,4.817
same,LOC729706 expression fc,Refseq XM_001131091.1,4.227
same,LOC729724 expression fc,Refseq XM_001131132.1,3.038
same,LOC729731 expression fc,Refseq XM_001131140.1,5.007
